{"source": "patent US9833436B2", "about": "“Method of preparing drug agglomerate” (PharmaDax Inc., priority 2014, dated 2017)", "key": {"[1]": {"test": "Compatibility with HPMCP HP-50 by residual content (% assay) after storage", "format": "physicochemical", "experimental": "In comparison, duloxetine crude materials and granulated duloxetine particles having similar size obtained by the conventional wet granulation were also assayed. The granulated duloxetine particles were granulated by the same second solvent (e.g., acetonitrile), which was used in the process of spherical agglomeration, and dried at 50° C. until LOD<1%. An enteric material, hypromellose phthalate (HPMCP) HP-50, which is known to cause degradation of duloxetine, was used in this test.\nFIGS. 4A-D are electronic microscopic diagram of duloxetine in different states. […] In Table 7, “C” refers to crude material. “SA” refers to spherical agglomerates. “G” refers to granulated duloxetine particles."}, "[2]": {"settings": "pH 6.8 PBS 500 mL, basket 100 rpm, 37° C."}}, "note": "Counter-ions that a name gives are not always drawn. Like-named read-outs stand apart in the source and are kept apart here."}
{"smiles": "CNCC[C@H](Oc1cccc2ccccc12)c1cccs1", "note": "[Crude, duloxetine hydrochloride]", "values": [{"measurement": "% Assay (residual content)", "setting": "[1]", "result": 98.39, "unit": "%"}, {"measurement": "Duloxetine Release (%)", "setting": "[2]; 3 min", "result": 89.3, "unit": "%"}, {"measurement": "Duloxetine Release (%)", "setting": "[2]; 6 min", "result": 95.8, "unit": "%"}, {"measurement": "Duloxetine Release (%)", "setting": "[2]; 9 min", "result": 97.5, "unit": "%"}, {"measurement": "Duloxetine Release (%)", "setting": "[2]; 12 min", "result": 98.4, "unit": "%"}, {"measurement": "Duloxetine Release (%)", "setting": "[2]; 15 min", "result": 98.8, "unit": "%"}, {"measurement": "Duloxetine Release (%)", "setting": "[2]; 18 min", "result": 99.1, "unit": "%"}, {"measurement": "Duloxetine Release (%)", "setting": "[2]; 21 min", "result": 99.4, "unit": "%"}, {"measurement": "Duloxetine Release (%)", "setting": "[2]; 30 min", "result": 99.9, "unit": "%"}, {"measurement": "Duloxetine Release (%)", "setting": "[2]; 60 min", "result": 100.9, "unit": "%"}]}
